Legend:
[1] = system: OVA-B16 TRCs; experiment: OVA-B16 TRC / activated OT-1 T cell co-culture with IDO1 or SLC1A5 blockade (flow cytometry); type: cell-based, mouse; conditions: for expression of IFN-γ, TNF-α and CD107a: T cells in co-culture with OVA-B16 TRCs; for PD-1 expression on T cells: co-culture with OVA-B16 TRCs, 24 h; for TRC apoptosis: co-culture with activated OT-1 T cells, 4 h
Method: (7) Scramble- or shIDO1-(Sh1 or Sh2)-OVA B16 TRCs were co-cultured with anti-CD3/CD28 bead-activated OT-1 T cells. After 4 h or 24 h, TRC apoptosis (as shown in FIG. 2G) or PD-1 expression on T cells (as shown in FIG. 2H) was analyzed by flow cytometry. The analysis results were as shown in FIG. 2G and FIG. 2H, respectively.
(9) Scramble- and shSLC1A5-(Sh1 or Sh2)-OVA B16 TRCs were co-cultured with anti-CD3/CD28 bead-activated OT-1 T cells. After 4 h or 24 h, TRC apoptosis (as shown in FIG. 2J) or PD-1 expression (as shown in FIG. 2K) was analyzed by flow cytometry. The analysis results were as shown in FIG. 2J and FIG. 2K, respectively.

[2] = system: PD-1; experiment: PD-1 expression in patients' peripheral blood T cells treated with supernatants of IFN-γ-treated CD45- tumor cells; type: cell-based, human; conditions: CD45- tumor cells treated with IFN-γ with or without 1-MT 24 h; supernatants on T cells 24 h
Method: Moreover, very high PD-1 expression was found in tumor-infiltrating CD8^+ T cells of breast and colon cancer patients (FIG. 7A). […] It was worth noting that Kyn levels were strongly correlated with PD-1 expression in breast and colon cancer patients, but not in healthy people (FIG. 7C). To clarify the cellular source of the Kyn production, CD45^+ immune cells and CD45^− tumor cells isolated from breast tumor tissues (n=10) and colon tumor tissues (n=14) of patients were analyzed. IDO1 expression as well as Kyn levels were dominantly high in CD45^− cells rather than CD45^+ cells. Then, the inventors treated CD45^− tumor cells with IFN-γ in the presence or absence of 1-MT for 24 hours in vitro. The supernatants were used to treat peripheral blood T cells of patients for 24 hours.

[3] = system: PAT4 and SLC7A8; experiment: PAT4 and SLC7A8 expression in activated CD8+ T cells (real-time PCR, immunostaining); type: cell-based, mouse
Method: (2) Activated CD8^+ T cells were treated with PBS or Kyn (200 μM) for 24 h. The expression of PAT4 and SLC7A8 was determined by real-time PCR (left) and immunostaining (right). Bar, […].
(6) The mRNA expression of PAT4 and SLC7A8 was determined in activated CD8^+ T cells treated with PBS, Kyn, Kyn/CH-223191 (10 μM) or Kyn/DMF (20 μM) for 48 h.

[4] = system: PAT4 and SLC7A8; experiment: PAT4 and SLC7A8 expression in CD8+ T cells from breast cancer patients (real-time PCR); type: cell-based, human; conditions: Kyn/DMF (20 μM) or Kyn/CH (50 μM), 48 h
Method: (8) CD8^+ T cells from breast cancer patients were treated with PBS, Kyn ([…] (20 μM) or Kyn/CH (50 μM) for 48 h. The expression of PAT4 and SLC7A8 was determined by real-time PCR. The determination results were as shown in FIG. 7I.

[5] = system: OVA-B16 melanoma; experiment: OVA-B16 melanoma mice, adoptive OT-1 CD8+ T cell transfer plus DMF or anti-PD-1 antibody; type: in vivo; conditions: anti-PD-1 antibody 250 μg/day or DMF 5 μg/mouse twice every day
Method: (13) C57BL/6 mice with 5×5 mm OVA-B16 melanoma were adoptively transferred with or without OT-1 CD8^+ T cells (4×10^6 cells/mouse) once per three days for three times. At the same time, these mice were treated with PBS, DMF (5 μg/mouse, o.t., twice every day) or anti-PD-1 neutralizing antibody (250 μg/day, once every two days, twice) for 20 days. The tumor growth was measured (left) and the long-term survival rate was analyzed (right).

[6] = system: PD-1; experiment: ID8 ovarian cancer and H22 hepatocarcinoma ascites peritoneal tumor models; type: in vivo, mouse; conditions: DMF
Method: (10) C57BL/6 mice were intraperitoneally injected with 1×10^6 ID8 ovarian cancer cells. After 10 days, mice were intraperitoneally administered with PBS, Kyn, DMF or Kyn+DMF for 6 days. CD8^+ T cells from ascites were isolated and PD-1 expression was determined by flow cytometry (n=5).

[7] = system: PD-1; experiment: OVA-B16 melanoma-bearing mice with adoptively transferred CFSE-labeled OT-1 T cells, PD-1 expression; type: in vivo, mouse; conditions: DMF 5 μg/mouse, 6 days; CFSE+ T cells from tumor mass, spleen or lymph nodes
Method: (6) C57BL/6 mice with 5×5 mm OVA-B16 melanoma were adoptively transferred with CFSE-labeled OT-1 CD8^+ T cells (4×10^6 cells/mouse, once every three days) on three occasions. At the same time, some mice were i.p. injected with Kyn (50 μg/mouse, once every two days) for three times. On Day 7 after transferring, CFSE^+CD8^+ T cells were isolated from tumor for flow cytometric analysis of PD-1 expression.
(8) The experimental steps were the same as those of step (7), except that C57BL/6 mice were treated with Kyn, DMF (5 μg/mouse, o.t., twice every day) or Kyn+DMF for 6 days. CFSE^+CD8^+ T cells from tumor were isolated for flow cytometric analysis of PD-1 expression.

[8] = system: B16 melanoma; experiment: B16 melanoma-bearing C57BL/6 mice treated with Kyn, DMF or Kyn+DMF; type: in vivo, mouse
Method: (9) C57BL/6 mice with 5×5 mm B16 melanoma were treated with PBS, Kyn (50 μg/mouse, i.p., once every two days), DMF (5 μg/mouse, o.t., once every day) or Kyn+DMF for 6 days. PD-1 expression in CD8^+ T cells isolated from tumors was determined by flow cytometry (n=5). (14) The experimental steps were the same as those of step (9), except that the tumors were weighed. The weighing results were as shown in FIG. 6P. *p<0.05, **p<0.01; #p<0.05, ##p<0.01, as compared with CTL group. The data represented mean±SEM.

[9] = system: AhR; experiment: PD-1 expression in activated CD8+ T cells treated with Kyn plus AhR inhibitor (flow cytometry); type: cell-based, mouse; conditions: Kyn plus inhibitor (DMF 10 or 20 μM), 72 h
Method: (4) CD8^+ T cells activated by anti-CD3/CD28 beads were treated with PBS, Kyn or Kyn/DMF (10 or 20 μM) for 72 h. The expression of PD-1 was determined by flow cytometry.

[10] = system: PD-1; experiment: PD-1 expression in human CD8+ T cells treated with Kyn and AhR inhibitors (flow cytometry); type: cell-based; conditions: 48 h
Method: (4) CD8^+ T cells isolated from PBMCs of patients with breast cancer or lung cancer were activated by anti-CD3/CD28 beads and treated with PBS, Kyn (200 μM) or Kyn/DMF (20 μM) for 48 h. The expression of PD-1 was determined by flow cytometry.
(5) CD8^+ T cells isolated from patients with breast cancer or lung cancer were treated with DMF (20 μM) for 48 h. PD-1 expression was determined by flow cytometry (n=6).

[11] = system: IDO1; experiment: IDO1 expression in TRCs upon IFN-γ; type: cell-based
[12] = system: B16 TRCs; experiment: Kyn release by IFN-γ-treated tumor cells (ELISA of supernatants); type: cell-based, mouse; conditions: IFN-γ 10 ng/ml, 24 h
Method: (3) OVA-B16 cells grown in culture flask or OVA-B16 TRCs were treated with IFN-γ (10 ng/ml) for 24 h. Kyn levels in the supernatants were determined by ELISA.

[13] = system: SLC1A5; experiment: SLC1A5 expression in TRCs upon IFN-γ; type: cell-based; conditions: IFN-γ treatment, mRNA and protein levels
[14] = system: PD-L1; experiment: PD-L1 expression on TRCs upon IFN-γ; type: cell-based, mouse
[15] = system: PD-1; experiment: Effect of GPNA on PD-1 expression in specific OT-1 CD8+ T cells co-cultured with 3D-cultured OVA-B16 cells; type: cell-based, mouse; conditions: 3D-cultured OVA-B16 cells treated 12 h with 10 μM GPNA, co-culture 1:10, 4 h
Method: 3D-cultured OVA-B16 cells were grouped and treated with drug as follows.
(§1) Control group 1 (PBS): culture medium+PBS;
Experimental group 2 (GPNA): culture medium+10 μM GPNA;
After 12 h of treatment, the cells were co-cultured with OT-1 CD8^+ T cells that had been activated for 48 h at a ratio of 1:10, and PD-1 expression in CD8^+ T cells was determined by flow cytometry after 4 h.

[16] = target: T1, tryptophan transporter SLC1A5 (Mus musculus, UniProt P51912); experiment: Effect of GPNA on the uptake of tryptophan by tumor cells (ELISA of lysates); type: cell-based; conditions: OVA-B16 cells, 50 ng/mL IFN-γ + 10 μM GPNA, 24 h
T1 construct: endogenous in cells; host or cells: mouse OVA-B16 melanoma cells
T1 sequence (P51912 1-553): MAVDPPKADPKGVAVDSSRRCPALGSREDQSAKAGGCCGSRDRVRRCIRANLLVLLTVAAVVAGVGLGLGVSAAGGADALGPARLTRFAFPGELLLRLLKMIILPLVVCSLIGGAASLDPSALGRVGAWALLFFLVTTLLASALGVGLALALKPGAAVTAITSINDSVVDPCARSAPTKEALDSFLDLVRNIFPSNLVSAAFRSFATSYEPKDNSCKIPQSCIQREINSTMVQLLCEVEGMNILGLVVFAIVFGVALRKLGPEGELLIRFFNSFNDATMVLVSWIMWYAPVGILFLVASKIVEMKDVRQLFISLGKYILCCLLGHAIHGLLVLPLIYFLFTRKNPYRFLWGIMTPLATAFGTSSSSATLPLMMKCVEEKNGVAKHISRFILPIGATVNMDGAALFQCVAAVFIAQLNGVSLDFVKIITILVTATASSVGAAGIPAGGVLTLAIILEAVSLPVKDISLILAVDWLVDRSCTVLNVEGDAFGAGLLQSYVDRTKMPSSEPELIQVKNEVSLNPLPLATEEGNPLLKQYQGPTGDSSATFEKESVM
Method: Mouse OVA-B16 cells were cultured in RPMI-1640 culture medium in vitro and were group and treated as follows.
as §1
Control group 2 (GPNA): culture medium+10 μM GPNA;
Experimental group 3 (IFN-γ): culture medium+50 ng/mL IFN-γ;
Experimental group 4 (IFN-γ+GPNA): culture medium+50 ng/mL IFN-γ+10 μM GPNA;
The cells in each group were collected after 24 h and ultrasonically broken, the concentrations of tryptophan in the lysates were determined by ELISA, and BCA protein assay was carried out at the same time.

[17] = target: T2, SLC1A5 (Mus musculus, UniProt P51912); experiment: Tryptophan levels in B16 TRC lysates (ELISA); type: cell-based
T2 construct: endogenous in cells; host or cells: B16 tumor-repopulating cells (TRCs)
T2 sequence (P51912 1-553): T1 sequence (P51912 1-553)
Method: (8) Tryptophan levels in cell lysates were determined by ELISA in scramble- and shSLC1A5-(Sh1 or Sh2)-B16 TRCs in the presence or absence of IFN-γ for 24 h.

Cn1cc(C[C@@H](N)C(=O)O)c2ccccc21 [1-MT]
expression of IFN-γ, TNF-α and CD107a [1]: upregulation
PD-1 expression on T cells [1]: downregulation
TRC apoptosis [1]: more TRC apoptosis
PD-1 upregulation in CD8+ T cells by supernatants [2]: blocked

COc1ccc(-c2cc(=O)c3ccccc3o2)cc1OC [DMF, 3′,4′-dimethoxyflavone]
Kyn-induced upregulation of SLC7A8 and PAT4 ([3]; activated CD8+ T cells, Kyn/CH-223191 (10 μM) or Kyn/DMF (20 μM), 48 h): effectively inhibiting
Kyn-induced upregulation of SLC7A8 and PAT4 [4]: blocked
therapeutic effect of adoptively transferred OVA-specific CD8+ T cells (tumor growth, survival) [5]: equal treatment efficiency
expression pattern of PD-1, IFN-γ and TNF-α [6]: reversed
Kyn-triggered upregulation of PD-1 expression in tumor-specific CD8+ T cells [7]: abrogated
accelerated tumor growth seen with Kyn-treatment ([8]; Kyn+DMF): reversed
Kyn-induced PD-1 upregulation in CD8+ T cells isolated from tumor, spleen or lymph nodes ([8]; Kyn+DMF (5 μg/mouse), 6 days): blocked
Kyn-dependent upsurge of PD-1 [9]: thwarted
Kyn-induced PD-1 upregulation ([10]; human CD8+ T cells, Kyn plus inhibitor (DMF 20 μM)): inhibited
PD-1 expression ([10]; patients' CD8+ T cells, DMF alone 20 μM): directly downregulate PD-1 expression

IFN-γ: recombinant IFN-γ purchased from R & D Systems
expression of PAT4 and SLC7A8 ([3]; CD8+ T cells, IFN-γ treatment): did not affect
IDO1 expression [11]: further upregulated
Kyn levels in the supernatants [12]: release high levels of Kyn
expression of SLC1A5 [13]: further augmented
expression of PD-L1 [14]: upregulated

N[C@@H](CCC(=O)Nc1ccc([N+](=O)[O-])cc1)C(=O)O [GPNA, L-γ-Glutamyl-p-nitroanilide]
expression of IFN-γ, TNF-α and CD107a [1]: upregulation
PD-1 expression on T cells [1]: downregulation
TRC apoptosis [1]: more TRC apoptosis
PD-1 expression in specific OT-1 CD8+ T cells [15]: significantly inhibit
uptake of tryptophan by tumor cells [16]: significantly reduced
intracellular levels of tryptophan in TRCs [17]: decreased

Source: US20210154162A1, “DRUG AND PHARMACEUTICAL COMPOSITION CONTAINING TRANSPORT PROTEIN INHIBITOR, AND USE” (Institute of Basic Medical Sciences Chinese Academy of …, priority 2018, published 2021)
